# In article PMC10643420, “A glutamate-gated chloride channel as the mite-specific target-site of dicofol and other diphenylcarbinol acaricides” (Communications Biology, 2023):
# How the values were obtained:
# Type in all cases: cell-based
# [1] = target: T1, TuGluCl3 (glutamate-gated chloride channel 3) (Tetranychus urticae, UniProt T1KFH0); assay: two-electrode voltage clamp in Xenopus oocytes at […] (natural agonist)
# T1 construct: gene 107363680; homomeric WT TuGluCl3 receptor expressed in Xenopus laevis oocytes
# T1 sequence (T1KFH0 36-542): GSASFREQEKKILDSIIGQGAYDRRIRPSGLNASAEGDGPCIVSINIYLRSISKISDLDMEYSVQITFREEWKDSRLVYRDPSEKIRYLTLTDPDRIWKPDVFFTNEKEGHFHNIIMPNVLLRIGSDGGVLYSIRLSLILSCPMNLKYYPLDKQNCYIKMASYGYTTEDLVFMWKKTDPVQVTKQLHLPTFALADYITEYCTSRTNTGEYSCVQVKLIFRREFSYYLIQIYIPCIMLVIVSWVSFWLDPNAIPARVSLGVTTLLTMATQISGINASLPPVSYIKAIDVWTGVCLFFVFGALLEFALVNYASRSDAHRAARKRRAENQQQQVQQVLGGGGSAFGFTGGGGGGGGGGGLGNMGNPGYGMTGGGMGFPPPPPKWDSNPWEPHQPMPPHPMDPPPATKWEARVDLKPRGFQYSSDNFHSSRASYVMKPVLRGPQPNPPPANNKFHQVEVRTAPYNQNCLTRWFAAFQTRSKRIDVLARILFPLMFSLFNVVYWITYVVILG
# [2] = target: T2, TuGluCl3 (glutamate-gated chloride channel 3) (Tetranychus urticae, UniProt T1KFH0, G326E); assay: as above
# T2 construct: gene 107363680; homomeric TuGluCl3 G326E receptor expressed in Xenopus laevis oocytes
# [3] = target: T1, TuGluCl3 (glutamate-gated chloride channel 3); assay: two-electrode voltage clamp in Xenopus oocytes; agonist, also potentiates glutamate currents
SMILES,two-electrode voltage clamp in Xenopus oocytes at 500 μM (natural agonist) [1],two-electrode voltage clamp in Xenopus oocytes at 500 μM (natural agonist) [2],EC50 [3]
N[C@@H](CCC(=O)O)C(=O)O [L-glutamic acid],both TuGluCl3 receptors showed clear responses to L-Glu,both TuGluCl3 receptors showed clear responses to L-Glu,–
CC(C)OC(=O)C(O)(c1ccc(Br)cc1)c1ccc(Br)cc1 [bromopropylate],–,–,3.23 µM
CCOC(=O)C(O)(c1ccc(Cl)cc1)c1ccc(Cl)cc1 [chlorobenzilate],–,–,2.78 µM
"OC(c1ccc(Cl)cc1)(c1ccc(Cl)cc1)C(Cl)(Cl)Cl [dicofol, 2,2,2-trichloro-1,1-bis(4-chlorophenyl)ethanol]",–,–,3.58 µM
